Assay results published in patent publication US20250034216A1, “STEREOSELECTIVE COVALENT LIGANDS FOR ONCOGENIC AND IMMUNOLOGICAL PROTEINS” (The Scripps Research Institute, priority 2021, published 2025).

Tests used:
DCUN1D4_C219 = biological target: T1, DCUN1D4_C219 (Homo sapiens, UniProt Q92564); experiment: IA-DTB cysteine engagement; assay type: binding; conditions: 22Rv1 cells, 20 μM probe, 1 h, relative to DMSO
T1 construct: endogenous in cells; host or cells: 22Rv1
T1 sequence (Q92564 1-292): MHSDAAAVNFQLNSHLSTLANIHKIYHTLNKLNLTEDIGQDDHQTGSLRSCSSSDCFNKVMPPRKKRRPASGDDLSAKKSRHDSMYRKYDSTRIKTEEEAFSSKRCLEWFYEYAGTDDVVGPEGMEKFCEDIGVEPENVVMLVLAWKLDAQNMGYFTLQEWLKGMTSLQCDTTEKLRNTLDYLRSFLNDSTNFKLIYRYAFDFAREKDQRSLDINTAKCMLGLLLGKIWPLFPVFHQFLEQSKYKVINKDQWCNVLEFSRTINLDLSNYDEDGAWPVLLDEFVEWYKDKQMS
In short: (§1)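 Probe-exposed cells were lysed, IA-DTB-labeled, trypsinized and streptavidin-enriched. Multiplexed TMT quantitation gave engagement ratios versus DMSO, with non-tryptic peptides excluded and intensities normalized to median summed signal.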

MMS19_C819 = biological target: T2, MMS19_C819 (Homo sapiens, UniProt Q96T76); experiment: IA-DTB cysteine engagement; assay type: binding; conditions: 22Rv1 cells, 20 μM probe, 1 h, relative to DMSO
T2 construct: endogenous in cells; host or cells: 22Rv1
T2 sequence (Q96T76 1-1030): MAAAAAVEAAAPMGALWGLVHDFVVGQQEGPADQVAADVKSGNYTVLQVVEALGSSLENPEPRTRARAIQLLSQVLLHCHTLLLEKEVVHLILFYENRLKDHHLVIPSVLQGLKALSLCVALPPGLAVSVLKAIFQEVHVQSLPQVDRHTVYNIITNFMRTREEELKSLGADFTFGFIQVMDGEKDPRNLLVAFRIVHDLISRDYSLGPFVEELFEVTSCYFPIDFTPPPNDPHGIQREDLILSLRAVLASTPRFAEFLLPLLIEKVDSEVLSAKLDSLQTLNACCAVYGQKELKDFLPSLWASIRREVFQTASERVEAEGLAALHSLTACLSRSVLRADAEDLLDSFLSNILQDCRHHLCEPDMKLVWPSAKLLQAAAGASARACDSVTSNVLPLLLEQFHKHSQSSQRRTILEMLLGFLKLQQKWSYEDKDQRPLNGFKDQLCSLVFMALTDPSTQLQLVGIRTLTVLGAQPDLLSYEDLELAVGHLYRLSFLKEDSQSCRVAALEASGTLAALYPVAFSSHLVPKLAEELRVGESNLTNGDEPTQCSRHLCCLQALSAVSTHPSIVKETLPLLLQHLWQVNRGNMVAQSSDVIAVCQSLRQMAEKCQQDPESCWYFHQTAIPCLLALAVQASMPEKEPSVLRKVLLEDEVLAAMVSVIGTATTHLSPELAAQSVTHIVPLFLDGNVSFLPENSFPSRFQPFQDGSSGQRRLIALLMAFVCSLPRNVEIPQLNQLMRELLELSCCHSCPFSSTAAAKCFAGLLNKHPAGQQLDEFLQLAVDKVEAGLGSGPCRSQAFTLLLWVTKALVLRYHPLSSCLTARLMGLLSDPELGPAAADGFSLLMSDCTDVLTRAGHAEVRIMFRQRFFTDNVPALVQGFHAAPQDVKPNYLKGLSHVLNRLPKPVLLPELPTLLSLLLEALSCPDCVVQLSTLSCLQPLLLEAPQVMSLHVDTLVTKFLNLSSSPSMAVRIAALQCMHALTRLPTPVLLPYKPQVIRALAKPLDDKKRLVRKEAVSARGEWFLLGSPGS
In short: as §1

| % engagement DCUN1D4_C219 (DCUN1D4_C219) | % engagement MMS19_C819 (MMS19_C819) | Compound |
| --- | --- | --- |
| −17% | 11% | C=CC(=O)N1C[C@H](c2ccc(Br)cc2)[C@H]1C(=O)Nc1cccc2cccnc12 [MY-3B, (2S,3S)-1-acryloyl-3-(4-bromophenyl)-N-(quinolin-8-yl)azetidine-2-carboxamide] |
| 82.5% | 90% | C=CC(=O)N1C[C@H](c2ccc(Br)cc2)[C@@H]1C(=O)Nc1cccc2cccnc12 [MY-1B, (2R,3S)-1-acryloyl-3-(4-bromophenyl)-N-(quinolin-8-yl)azetidine-2-carboxamide] |
| 33.5% | −10% | C=CC(=O)N1C[C@H](c2ccc(Br)cc2)[C@H]1C(=O)Nc1cccc2cccnc12 [MY-3A, (2S,3S)-1-acryloyl-3-(4-bromophenyl)-N-(quinolin-8-yl)azetidine-2-carboxamide] |
| 45.5% | 1.5% | C=CC(=O)N1C[C@@H](c2ccc(Br)cc2)[C@H]1C(=O)Nc1cccc2cccnc12 [MY-1A, (2S,3R)-1-acryloyl-3-(4-bromophenyl)-N-(quinolin-8-yl)azetidine-2-carboxamide] |
